Measurements as given in patent US5110976A, “Insecticidal composition comprising more than one active ingredient” (priority 1985, dated 1992).

Legend:
[1] = system: T. confusum; assay: Contact method, synergism between stereoisomers (Table 2); assay type: in vivo; settings: Tribolium confusum, 24 h
Description: The stereoisomers are dissolved in a 1:2 mixture of mineral oil and acetone and filter paper discs (Whatman No. 1., diameter 9 cm) are impregnated with the corresponding dosage of the solution of the active ingredient. The acetone is allowed to evaporate and the insects are examined on filter paper discs placed into Petri-dishes. Three parallels are used for each dose and 15 animals are placed in each Petri-dish. Mortality rate is determined after 24 hours. The corrected mortality % data are calculated by means of the Abbot formula.
The test is carried out on T. confusum and the following results are obtained by the contact method for various active ingredient doses.
The test is carried out according to the method described in Example 20.

[2] = system: Musca domestica; assay: Topical LD50 (Table 3); assay type: in vivo, house fly (Musca domestica), 3-5 days' old females
Description: In Table 3 the LD50 values of the Ig and Ii isomers and those of the Ib isomer-pair are disclosed. The data are topically measured.
The active ingredients are dissolved in 2-ethoxyethanol (cellosolve) and 0.3 μl droplets of the solutions are applied onto the dorsal cuticulum of 3-5 days' old female house flies. 10 animals are used and 2 parallels are carried out for each dose. The tests are carried out for 5 dose levels between activity limits of 0% and 100%. After treatment the flies are placed into glass vials. Mortality is determined after 24 hours. Data are transformed to log10 dosage and probit mortality. LD50 and confidence interval values are calculated by linear regression analysis of the log-probit data. The expected values required for the calculation of synergism are obtained by means of harmonic average. The synergistic factor is the quotient of the expected and measured values.

[3] = system: bees; assay: Toxicity on bees; settings: in vivo
[4] = Repellant effect; settings: in vivo
[5] = system: A. matricariae; assay: Direct contact test of pupae (Table 5); assay type: in vivo
Description: Mature pupae of A. matricariae on paprika leaves in Petri dishes are exposed to a direct spray of the active ingredients.
Two or three days before emergence paprika leaves with parasitized pupae are used. The leaves are laid on filter paper in a plastic Petri dish The filter paper is moistened.
Application of treatment: See Example 23.
The pieces of leaf are transferred after treatment to clean Petri dish bottoms The trays are stored in a clinic chamber at 20° C. temperature, 70% relative humidity and a light-dark cycle of […]. Surviving pupae hatch after 2-3 days. The numbers of hatched and dead pupae are counted.

For `CC1(C)[C@H](C=C(Cl)Cl)[C@H]1C(=O)O[C@H](C#N)c1cccc(Oc2ccccc2)c1` (relative stereo) [Ib], the mortality at 110 µg/disc ([1]; 0.11 mg/disc) was 90%, the mortality at 330 µg/disc ([1]; 0.33 mg/disc) was 100% and the mortality at 1000 µg/disc ([1]; 1.00 mg/disc) was 100%. It also gave a mortality at 3000 µg/disc ([1]; 3.00 mg/disc) of 100%, an LD50 expected ([2]; harmonic average of the single isomers) of 24.5 ng/insect and a synerg. factor ([2]; quotient of expected and measured LD50) of 1.92. For the same molecule, the LD50 measured ([2]; topical, dorsal cuticulum, 24 hours) was 12.8 ng/insect, the toxicity on bees [3] was “very low toxicity on bees” and the repellant effect [4] was “outstandingly good”. It also gave a Mortality % ([5]; 1 ppm) of 0%, a Mortality % ([5]; 5 ppm) of 0% and a Mortality % ([5]; 10 ppm) of 0%. The Mortality % ([5]; 30 ppm) was 61.0%.
